Measurements as given in patent US20040006236A1, “Diaminopropionic acid derivatives” (priority 1999, published 2004).
Where two headings read alike, the source gives them in different places.

What was measured:
[1] = target: T1, LFA-1 binding to immobilized ICAM-1 (Homo sapiens, UniProt P05107+P20701); assay: LFA-1/ICAM-1 protein-protein assay (solid-phase ELISA)
T1 construct: made in house; host or cells: transfected 293 cells (LFA-1)
Experimental: (a) LFA-1/ICAM-1 screening test: LFA-1/ICAM-1 antagonist activity, defined as the ability of compounds of the invention to block LFA-1 binding to immobilized ICAM-1, was quantitated using a solid-phase ELISA.
(§1) Typically, fusion protein consisting of the entire extracellular domain of human ICAM-1 and the Fc domain of human IgG (5dICAM-Ig) was coated onto 96-well microtiter plates (0.15 μg in 100 μL PBS) overnight at 4° C. The plates were then blocked with 150 μL of 1% BSA/1 mM MnCl2/0.14 M NaCl/20 mM HEPES, pH 7.2 for 1 h at 37° C. and washed 3 times (150 μL each) with Wash Buffer (50 mM Tris, pH 7.4/100 mM NaCl/1 mM MnCl2/0.05% Tween 20). Stock solutions (100 μM in 100% DMSO) of test compounds were diluted 50 fold with 150 μL of Binding Buffer (0.05% BSA/0.05% Tween 20/1 mM MnCl2/0.14 M NaCl/20 mM HEPES, pH 7.2) plus 10% DMSO. […] Fifty μL per well of each dilution was added to the ICAM-1 coated plates, followed by 50 μL per well of membrane-bound LFA-1 (280 ng/mL in Binding Buffer) derived from transfected 293 cells. The plates were shaken vigorously for 1 min (room temperature) and gently for 2 h (37° C.). After incubation, the plates were washed 3 times (150 μL each) with Wash Buffer. Mouse anti-human integrin β2 monoclonal antibody was added (100 μL/well, 1 μg/mL in Binding Buffer) and allowed to incubate for 1 h (37° C.) with gentle agitation. The plates were then washed 3 times with Wash Buffer. HRP-conjugated goat anti-mouse IgG (100 μL/well, 1:1500 dilution in Binding Buffer) was added to each well, followed by incubation for 1 h (37° C.), and concluded by three washes (150 μL each) with Wash Buffer. TMB solution (100 μL per well) was added for color development (10 min). The reaction was stopped by the addition of 100 μL of 1 M H3PO4 to each well. The plates were then read at 450 nm. The inhibitory activities of test compounds were determined by the IC50s.
as §1, with “LFA-1/ICAM-1 antagonist activity, defined as the ability to block LFA-1 binding to immobilized ICAM-1, was quantitated using a solid-phase ELISA. Typically,” for “Typically,”, “(0.05 %” for “(0.05%”, “nm.” for “nm. The inhibitory activities of test compounds were determined by the IC50s.”

[2] = target: T2, ICAM-1 binding to immobilized Mac-1 (Homo sapiens, UniProt P05107+P11215); assay: Mac-1/ICAM-1 screening assay (solid-phase ELISA)
T2 construct: made in house; host or cells: transfected 293 cells (Mac-1)
T2 sequence (P05107 23-769, other chains not shown): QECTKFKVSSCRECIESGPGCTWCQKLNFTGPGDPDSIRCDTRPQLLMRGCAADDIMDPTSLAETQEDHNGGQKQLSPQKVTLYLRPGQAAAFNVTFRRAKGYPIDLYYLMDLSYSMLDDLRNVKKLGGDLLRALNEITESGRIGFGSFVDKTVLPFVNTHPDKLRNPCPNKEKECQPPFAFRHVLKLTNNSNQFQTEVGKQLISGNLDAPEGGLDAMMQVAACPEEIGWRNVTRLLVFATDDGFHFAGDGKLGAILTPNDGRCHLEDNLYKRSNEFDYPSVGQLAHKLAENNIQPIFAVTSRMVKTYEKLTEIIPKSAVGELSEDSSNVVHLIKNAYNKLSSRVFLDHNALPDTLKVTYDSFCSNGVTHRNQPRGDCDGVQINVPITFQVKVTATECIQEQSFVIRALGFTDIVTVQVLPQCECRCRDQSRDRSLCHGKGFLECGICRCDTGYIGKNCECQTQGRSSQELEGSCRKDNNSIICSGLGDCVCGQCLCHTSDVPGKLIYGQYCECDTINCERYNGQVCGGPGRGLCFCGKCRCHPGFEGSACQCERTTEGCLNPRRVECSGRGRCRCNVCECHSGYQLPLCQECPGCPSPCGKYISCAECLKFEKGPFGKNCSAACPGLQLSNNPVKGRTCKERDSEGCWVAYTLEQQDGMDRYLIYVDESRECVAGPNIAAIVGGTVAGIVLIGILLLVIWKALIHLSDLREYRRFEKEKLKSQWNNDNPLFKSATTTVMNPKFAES
Experimental: (b) Mac-1/ICAM-1 screening test: Mac-1/ICAM-1 antagonist activity, defined as the ability to compete with ICAM-1 binding to immobilized Mac-1, was quantitated by a solid-phase ELISA.
(§2) Membrane-bound Mac-1 derived from transfected 293 cells was coated onto 96-well microtiter plates (50 μL/well, 3 μg/mL Mac-1 in 20 mM Hepes, pH 7.2/0.14 M NaCl/1 mM MnCl2) overnight at 4° C. The plates were blocked with 100 μL/well of 0.5% BSA in 20 mM Hepes, pH 7.2/0.14 M NaCl/1 mM MnCl2 at 37° C. for 1 h and washed 3 times (120 μL each) with Binding Buffer (20 mM Hepes, pH 7.2/0.14 M NaCl/1 mM MnCl2/0.05% Tween 20). Test compounds were dissolved in 100% DMSO and diluted 1:50 in Binding Buffer plus 10% DMSO. A series of 1:4 dilutions were performed for each compound (concentration range, 0.12 nM-20 μM). Each dilution (25 μL/well) was added to the plates, followed by 25 μL/well of 5 dICAM-Ig (40 μg/mL in Binding Buffer). The plates were shaken vigorously for 1 min (room temperature), followed by gentle agitation for 2 h (37° C.), and washed with Binding Buffer (3 times, 120 μL each). HRP-conjugated goat anti-human IgG(Fc-specific) antibody (0.125 μg/mL in Binding Buffer plus 0.05% BSA) was added to each well (50 μL/well), followed by incubation for 1 h at 37° C. The plates were then washed 3 times with Binding Buffer (120 μL each). TMB solution (100 μL/well) was added to each well for color development for 10 min. The reaction was stopped with 1 M H3PO4 (100 μL/well) and the plates were read at 450 nm. The inhibitory activities of test compounds were determined by the IC50s.
as §2, with “Mac-1/ICAM-1 antagonist activity, defined as the ability to compete with ICAM-1 binding to immobilized Mac-1, was quantitated by a solid-phase ELISA. Membrane-bound” for “Membrane-bound”, “5dICAM-Ig” for “5 dICAM-Ig”, “nm.” for “nm. The inhibitory activities of test compounds were determined by the IC50s.”

[3] = read-out: LFA-1/ICAM-1 Protein-Protein Assay IC50
[4] = read-out: Mac-1/ICAM-1 Protein-Protein Assay IC50

T1 sequence (P20701 26-1170): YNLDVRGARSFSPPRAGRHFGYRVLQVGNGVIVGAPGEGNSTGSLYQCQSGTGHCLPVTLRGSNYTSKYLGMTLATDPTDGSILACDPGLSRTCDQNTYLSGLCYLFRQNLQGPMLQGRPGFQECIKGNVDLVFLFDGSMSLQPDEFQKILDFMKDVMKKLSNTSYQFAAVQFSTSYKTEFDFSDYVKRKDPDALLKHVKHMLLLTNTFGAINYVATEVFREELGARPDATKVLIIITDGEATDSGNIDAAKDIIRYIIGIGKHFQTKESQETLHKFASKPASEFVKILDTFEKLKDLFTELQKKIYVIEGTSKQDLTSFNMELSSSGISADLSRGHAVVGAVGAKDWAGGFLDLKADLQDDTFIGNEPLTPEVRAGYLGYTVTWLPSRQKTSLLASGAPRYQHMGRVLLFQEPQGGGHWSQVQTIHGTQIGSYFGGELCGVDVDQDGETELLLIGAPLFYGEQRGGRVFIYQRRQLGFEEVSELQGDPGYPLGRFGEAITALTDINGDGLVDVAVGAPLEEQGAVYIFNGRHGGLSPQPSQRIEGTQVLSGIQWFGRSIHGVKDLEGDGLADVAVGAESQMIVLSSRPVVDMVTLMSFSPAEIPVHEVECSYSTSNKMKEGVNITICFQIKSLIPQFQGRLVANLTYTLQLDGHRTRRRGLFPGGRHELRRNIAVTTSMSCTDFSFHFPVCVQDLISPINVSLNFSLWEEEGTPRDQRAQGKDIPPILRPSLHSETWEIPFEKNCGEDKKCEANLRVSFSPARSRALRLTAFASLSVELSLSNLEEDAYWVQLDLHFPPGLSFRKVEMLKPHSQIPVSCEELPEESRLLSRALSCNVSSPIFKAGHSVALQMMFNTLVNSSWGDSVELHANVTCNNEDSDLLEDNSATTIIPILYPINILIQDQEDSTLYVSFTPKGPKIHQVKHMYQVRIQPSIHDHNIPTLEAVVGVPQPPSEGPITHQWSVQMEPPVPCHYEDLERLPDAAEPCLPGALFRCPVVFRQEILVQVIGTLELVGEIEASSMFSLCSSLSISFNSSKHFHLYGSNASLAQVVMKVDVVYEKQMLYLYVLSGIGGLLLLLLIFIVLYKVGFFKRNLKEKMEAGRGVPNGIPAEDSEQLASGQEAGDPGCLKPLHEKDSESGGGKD
T1 sequence (P05107 23-769): as the sequence (P05107 23-769, other chains not shown) above

| SMILES | IC50 [1, 3] [nM] | IC50 [2, 4] [nM] | IC50 ([1]; read-out: LFA-1/ICAM IC50) [nM] | IC50 ([2]; read-out: Mac-1/ICAM IC50) [nM] |
| --- | --- | --- | --- | --- |
| O=C(NCc1cccc(O)c1)c1ccc(C(=O)N[C@@H](CNC(=O)c2cc3ccccc3oc2=O)C(=O)O)c(Cl)c1 [Example 188] | 3.4 | 146 |  |  |
| O=C(NCc1cccc(O)c1)c1ccc(C(=O)N[C@@H](CNC(=O)c2ccccc2)C(=O)O)c(Cl)c1 [Compound B, 3-benzoylamino-N-[2-chloro-4-[[[(3-hydroxyphenyl)methyl]amino]carbonyl]benzoyl]-L-alanine] |  |  | 0.9 | 31.2 |
| O=C(NCc1cccc(O)c1)c1ccc(C(=O)N[C@@H](CNC(=O)c2ccnc3ccccc23)C(=O)O)c(Cl)c1 [Example 184] | 2.5 | 91 |  |  |
| O=C(NCc1cccc(O)c1)c1ccc(C(=O)N[C@@H](CNC(=O)c2c3ccccc3cc3ccccc23)C(=O)O)c(Cl)c1 [Example 189] | 18 | 1050 |  |  |
| O=C(NCc1cccc(O)c1)c1ccc(C(=O)N[C@@H](CNC(=O)c2nccnc2C(=O)Nc2ccc(Cl)cn2)C(=O)O)c(Cl)c1 [Example 171] | 1 | 136 |  |  |
| O=C(NCc1cccc(O)c1)c1ccc(C(=O)N[C@@H](CNC(=O)c2ccccn2)C(=O)O)c(Cl)c1 [Example 162] | 1 | 105 |  |  |
| O=C(NC[C@H](NC(=O)c1ccc(-n2nnnc2NCc2cccc(O)c2)cc1Cl)C(=O)O)c1cccs1 [Compound I, N-[2-chloro-4-[5-[[(3-hydroxyphenyl)methyl]amino]tetrazol-1-yl]benzoyl]-3-(thiophene-2-carbonyl)amino-L-alanine] |  |  | 2.6 | 75.5 |
| O=C(NC[C@H](NC(=O)c1c(Cl)cccc1Cl)C(=O)O)c1ccc(Br)s1 [Compound F, 3-(5-bromothiophene-2-carbonyl)amino-N-(2,6-dichlorobenzoyl)-L-alanine] |  |  | 6.4 | 81.7 |
| O=C(NCc1cccc(O)c1)c1ccc(C(=O)N[C@@H](CNC(=O)c2ccc(Cl)nc2)C(=O)O)c(Cl)c1 [Example 167] | 2.2 | 39 |  |  |
| COc1ccc(C(=O)NC[C@H](NC(=O)c2ccc(C(=O)NCc3cccc(O)c3)cc2Cl)C(=O)O)c(OC)n1 [Example 168] | 12 | 224 |  |  |
| O=C(NCc1cccc2[nH]ccc12)c1ccc(C(=O)N[C@@H](CNC(=O)c2cccs2)C(=O)O)c(Cl)c1 [Compound G, N-[2-chloro-4-[[(1H-indol-4-ylmethyl)amino]carbonyl]benzoyl]-3-(thiophene-2-carbonyl)amino-L-alanine] |  |  | 1.3 | 22.4 |
| O=C(CCc1cccc(O)c1)c1ccc(C(=O)N[C@@H](CNC(=O)c2cccs2)C(=O)O)c(Cl)c1 [Compound H, N-[2-chloro-4-[1-oxo-3-(3-hydroxyphenyl)propyl]benzoyl]-3-(thiophene-2-carbonyl)amino-L-alanine] |  |  | 1.4 | 43.4 |
| COc1cccc(C(=O)NC[C@H](NC(=O)c2ccc(C(=O)NCc3cccc(O)c3)cc2Cl)C(=O)O)c1 [Compound A, N-[2-chloro-4-[[[(3-hydroxyphenyl)methyl]amino]carbonyl]benzoyl]-3-(3-methoxybenzoyl)amino-L-alanine] |  |  | 1.2 | 43.4 |
| O=C(NCc1cccc(O)c1)c1ccc(C(=O)N[C@@H](CNC(=O)c2nccc3ccccc23)C(=O)O)c(Cl)c1 [Example 180] | 0.6 | 48 |  |  |
| O=C(NCc1cccc(O)c1)c1ccc(C(=O)N[C@@H](CNC(=O)c2nc3ccccc3nc2O)C(=O)O)c(Cl)c1 [Example 186] | 1.6 | 167 |  |  |
| O=C(NCc1cccc(O)c1)c1ccc(C(=O)N[C@@H](CNC(=O)c2cc3ccccc3o2)C(=O)O)c(Cl)c1 [Example 174] | 3.4 | 91 |  |  |
| O=C(NCc1cccc(O)c1)c1ccc(C(=O)N[C@@H](CNC(=O)c2cccnc2Cl)C(=O)O)c(Cl)c1 [Example 166] | 3 | 68 |  |  |
| O=C(NCc1cccc(O)c1)c1ccc(C(=O)N[C@@H](CNC(=O)c2cccs2)C(=O)O)c(Cl)c1 [Compound D, N-[2-chloro-4-[[[(3-hydroxyphenyl)methyl]amino]carbonyl]benzoyl]-3-(thiophene-2-carbonyl)amino-L-alanine] |  |  | 0.5 | 6.4 |
| O=C(NCc1cccc(O)c1)c1ccc(C(=O)N[C@@H](CNC(=O)c2cc(=O)[nH]c(=O)[nH]2)C(=O)O)c(Cl)c1 [Example 173] | 0.6 | 36 |  |  |
